Measured values as given in the supplement of paper PMC12463676, “Small-molecule dissolution of stress granules by redox modulation benefits ALS models” (Nature Chemical Biology, 2025).

compound: NC(=O)CCCCC1CCSS1 [lipoamide]; assay: thermal stability z-score vs DMSO; higher = more thermally stabilized by treatment; conditions: HeLa; lipoamide concentration 100 µM; arsenate co-treatment: 1 mM arsenate 1 h
Description: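 Cellular thermal proteome profiling in HeLa cells. Cells were treated with 100 µM lipoamide for 1 h, with or without 1 mM arsenate for a further 1 h, then heated to ten temperatures (37-66.3 °C), and soluble protein was quantified by TMT mass spectrometry relative to 0.1% DMSO controls. The thermal stability score (sum of log2 fold changes minus the abundance score) was transformed to a z-score; mean of n = 3 experiments.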
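Note: each temperature applied for 3 min, abundance score taken as mean log2 fold change at the two lowest temperatures, z-score obtained by mean subtraction and division by SD.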

Sequence of UniProt O60499 (O60499 whole entry): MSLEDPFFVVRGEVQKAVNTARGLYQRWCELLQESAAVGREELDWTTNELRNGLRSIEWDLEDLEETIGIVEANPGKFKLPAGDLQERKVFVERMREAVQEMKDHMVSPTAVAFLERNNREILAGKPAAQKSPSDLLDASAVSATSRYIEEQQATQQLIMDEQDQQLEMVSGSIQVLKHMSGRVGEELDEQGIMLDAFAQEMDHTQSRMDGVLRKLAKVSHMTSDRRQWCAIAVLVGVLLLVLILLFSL
Sequence of UniProt Q92615 (Q92615 whole entry): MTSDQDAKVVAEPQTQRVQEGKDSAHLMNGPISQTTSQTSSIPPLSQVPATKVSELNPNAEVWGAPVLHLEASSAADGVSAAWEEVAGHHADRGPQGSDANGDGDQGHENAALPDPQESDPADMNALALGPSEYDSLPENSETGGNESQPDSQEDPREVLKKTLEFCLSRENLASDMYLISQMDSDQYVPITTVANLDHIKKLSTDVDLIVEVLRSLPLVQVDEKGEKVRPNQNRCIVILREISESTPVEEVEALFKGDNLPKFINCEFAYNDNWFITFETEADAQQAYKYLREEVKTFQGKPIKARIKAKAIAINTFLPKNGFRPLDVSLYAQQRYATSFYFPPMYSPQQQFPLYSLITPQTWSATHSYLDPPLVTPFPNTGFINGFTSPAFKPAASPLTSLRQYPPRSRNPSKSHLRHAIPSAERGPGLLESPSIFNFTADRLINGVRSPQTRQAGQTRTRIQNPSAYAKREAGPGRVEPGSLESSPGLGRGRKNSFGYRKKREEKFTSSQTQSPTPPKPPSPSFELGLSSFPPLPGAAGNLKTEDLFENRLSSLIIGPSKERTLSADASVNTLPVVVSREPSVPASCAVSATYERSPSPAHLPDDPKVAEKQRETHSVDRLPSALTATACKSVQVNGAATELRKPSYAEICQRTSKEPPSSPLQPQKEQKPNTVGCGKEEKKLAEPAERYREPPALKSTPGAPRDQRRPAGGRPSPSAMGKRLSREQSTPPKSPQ
Sequence of UniProt Q86YH6 (Q86YH6 whole entry): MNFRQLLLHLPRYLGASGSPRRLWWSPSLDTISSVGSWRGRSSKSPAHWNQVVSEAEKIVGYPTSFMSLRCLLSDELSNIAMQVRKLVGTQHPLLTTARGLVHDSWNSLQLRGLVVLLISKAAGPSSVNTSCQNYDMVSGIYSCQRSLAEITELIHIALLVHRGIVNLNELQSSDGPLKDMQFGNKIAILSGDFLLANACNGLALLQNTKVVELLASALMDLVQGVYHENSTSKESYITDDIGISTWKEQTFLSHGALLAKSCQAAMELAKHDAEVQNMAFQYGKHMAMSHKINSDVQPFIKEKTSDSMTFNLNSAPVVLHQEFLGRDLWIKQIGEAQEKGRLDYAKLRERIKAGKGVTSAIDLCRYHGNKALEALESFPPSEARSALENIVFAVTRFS
Sequence of UniProt O15031 (O15031 whole entry): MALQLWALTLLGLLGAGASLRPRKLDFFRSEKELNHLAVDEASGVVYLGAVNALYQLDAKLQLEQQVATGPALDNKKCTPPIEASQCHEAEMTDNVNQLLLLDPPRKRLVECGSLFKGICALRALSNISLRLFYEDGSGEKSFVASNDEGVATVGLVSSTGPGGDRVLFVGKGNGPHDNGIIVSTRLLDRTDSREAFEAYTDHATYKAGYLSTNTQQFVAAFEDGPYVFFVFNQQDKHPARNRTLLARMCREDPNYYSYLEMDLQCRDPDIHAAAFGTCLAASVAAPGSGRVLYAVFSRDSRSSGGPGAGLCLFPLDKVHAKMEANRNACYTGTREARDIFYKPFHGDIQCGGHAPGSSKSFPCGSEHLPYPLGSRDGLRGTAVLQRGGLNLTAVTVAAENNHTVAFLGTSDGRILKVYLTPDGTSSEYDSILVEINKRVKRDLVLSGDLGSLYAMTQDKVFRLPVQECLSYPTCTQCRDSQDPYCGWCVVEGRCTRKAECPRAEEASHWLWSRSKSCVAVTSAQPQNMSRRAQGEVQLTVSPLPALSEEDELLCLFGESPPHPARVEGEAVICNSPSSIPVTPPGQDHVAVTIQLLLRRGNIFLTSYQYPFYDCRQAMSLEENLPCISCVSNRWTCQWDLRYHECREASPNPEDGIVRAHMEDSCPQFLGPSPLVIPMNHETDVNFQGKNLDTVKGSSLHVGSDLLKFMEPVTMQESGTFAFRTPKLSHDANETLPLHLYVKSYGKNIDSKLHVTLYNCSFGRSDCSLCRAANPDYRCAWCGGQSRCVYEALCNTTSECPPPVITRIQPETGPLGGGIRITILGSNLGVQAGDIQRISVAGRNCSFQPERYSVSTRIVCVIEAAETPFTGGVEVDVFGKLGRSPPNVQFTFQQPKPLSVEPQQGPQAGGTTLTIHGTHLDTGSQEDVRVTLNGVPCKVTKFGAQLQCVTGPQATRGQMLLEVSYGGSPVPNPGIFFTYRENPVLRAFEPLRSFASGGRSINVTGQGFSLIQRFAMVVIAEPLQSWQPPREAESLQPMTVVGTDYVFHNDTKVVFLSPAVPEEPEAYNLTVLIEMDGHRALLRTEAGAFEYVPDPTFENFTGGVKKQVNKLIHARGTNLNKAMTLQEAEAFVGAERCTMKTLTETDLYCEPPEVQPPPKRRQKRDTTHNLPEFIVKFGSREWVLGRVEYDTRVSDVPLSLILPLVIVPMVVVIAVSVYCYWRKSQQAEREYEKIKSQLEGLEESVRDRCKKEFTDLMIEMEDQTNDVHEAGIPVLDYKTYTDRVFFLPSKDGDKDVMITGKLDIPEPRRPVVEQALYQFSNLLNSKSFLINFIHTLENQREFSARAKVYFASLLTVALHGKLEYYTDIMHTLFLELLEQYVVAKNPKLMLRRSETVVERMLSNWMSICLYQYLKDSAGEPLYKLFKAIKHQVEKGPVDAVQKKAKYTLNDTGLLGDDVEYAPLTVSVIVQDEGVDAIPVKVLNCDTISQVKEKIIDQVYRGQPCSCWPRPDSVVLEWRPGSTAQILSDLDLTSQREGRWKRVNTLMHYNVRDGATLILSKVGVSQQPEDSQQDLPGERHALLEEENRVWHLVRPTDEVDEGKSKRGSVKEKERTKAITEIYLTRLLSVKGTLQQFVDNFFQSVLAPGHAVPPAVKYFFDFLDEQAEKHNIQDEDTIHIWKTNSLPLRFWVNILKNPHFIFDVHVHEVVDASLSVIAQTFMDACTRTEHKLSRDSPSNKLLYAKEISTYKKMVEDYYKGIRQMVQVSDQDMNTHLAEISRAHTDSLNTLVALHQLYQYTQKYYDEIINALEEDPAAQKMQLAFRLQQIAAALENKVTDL
Sequence of UniProt Q9UNS1 (Q9UNS1 whole entry): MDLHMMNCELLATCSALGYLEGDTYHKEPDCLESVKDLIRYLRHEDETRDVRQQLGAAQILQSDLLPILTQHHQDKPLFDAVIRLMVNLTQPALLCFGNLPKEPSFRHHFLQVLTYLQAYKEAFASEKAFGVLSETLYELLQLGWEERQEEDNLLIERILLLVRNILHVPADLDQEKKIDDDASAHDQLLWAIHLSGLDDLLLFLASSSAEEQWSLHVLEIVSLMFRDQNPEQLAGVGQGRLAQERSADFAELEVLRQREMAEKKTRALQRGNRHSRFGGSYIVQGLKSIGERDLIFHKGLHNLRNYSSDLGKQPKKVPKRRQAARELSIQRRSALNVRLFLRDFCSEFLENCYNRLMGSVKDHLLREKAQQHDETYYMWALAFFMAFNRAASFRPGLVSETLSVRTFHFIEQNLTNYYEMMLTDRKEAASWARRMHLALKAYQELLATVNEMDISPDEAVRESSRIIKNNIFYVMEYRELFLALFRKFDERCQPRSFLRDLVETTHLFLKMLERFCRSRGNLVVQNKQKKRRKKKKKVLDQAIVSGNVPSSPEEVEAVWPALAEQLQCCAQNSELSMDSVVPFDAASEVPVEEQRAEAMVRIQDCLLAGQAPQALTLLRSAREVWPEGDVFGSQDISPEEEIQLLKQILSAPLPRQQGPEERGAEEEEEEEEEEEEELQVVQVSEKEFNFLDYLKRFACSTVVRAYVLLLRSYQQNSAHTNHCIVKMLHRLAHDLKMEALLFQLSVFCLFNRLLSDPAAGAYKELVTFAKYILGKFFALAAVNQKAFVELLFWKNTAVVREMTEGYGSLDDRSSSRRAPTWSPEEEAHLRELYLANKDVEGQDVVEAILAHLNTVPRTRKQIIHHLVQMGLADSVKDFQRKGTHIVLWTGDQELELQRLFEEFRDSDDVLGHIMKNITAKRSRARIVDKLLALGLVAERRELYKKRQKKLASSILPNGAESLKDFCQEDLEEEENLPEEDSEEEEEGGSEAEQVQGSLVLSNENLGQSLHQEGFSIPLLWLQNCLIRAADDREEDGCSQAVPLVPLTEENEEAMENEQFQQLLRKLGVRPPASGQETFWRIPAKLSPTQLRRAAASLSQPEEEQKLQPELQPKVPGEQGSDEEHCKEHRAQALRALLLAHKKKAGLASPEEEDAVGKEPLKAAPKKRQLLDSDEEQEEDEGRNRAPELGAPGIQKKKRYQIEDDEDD
Sequence of UniProt Q9NRM2 (Q9NRM2 whole entry): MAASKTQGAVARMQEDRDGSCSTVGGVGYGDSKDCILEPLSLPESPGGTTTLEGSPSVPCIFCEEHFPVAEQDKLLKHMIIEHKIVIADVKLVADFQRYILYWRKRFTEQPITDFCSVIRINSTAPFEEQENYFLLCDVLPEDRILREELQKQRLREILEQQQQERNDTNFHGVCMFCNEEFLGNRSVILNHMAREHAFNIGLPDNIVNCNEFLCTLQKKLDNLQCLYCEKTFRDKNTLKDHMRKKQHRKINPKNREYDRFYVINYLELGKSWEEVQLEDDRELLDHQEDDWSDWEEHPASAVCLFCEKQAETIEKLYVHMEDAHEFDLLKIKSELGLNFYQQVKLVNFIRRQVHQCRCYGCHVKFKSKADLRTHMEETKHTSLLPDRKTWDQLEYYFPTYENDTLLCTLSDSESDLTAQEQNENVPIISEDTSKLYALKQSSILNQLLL
Sequence of UniProt Q86WX3 (Q86WX3 whole entry): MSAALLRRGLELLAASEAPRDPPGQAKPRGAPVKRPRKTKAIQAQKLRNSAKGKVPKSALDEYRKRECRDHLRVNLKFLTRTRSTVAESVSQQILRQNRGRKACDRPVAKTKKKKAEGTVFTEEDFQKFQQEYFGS

Point of comparison: SQRDL (UniProt Q9Y6N5), thermal stability z-score -0.541. Against it:
- PDSS2 (UniProt Q86YH6) — higher, 0.66
- LARP4B (UniProt Q92615) — higher, 0.048
- KIF13A (UniProt Q9H1H9) — higher, 0.286
- TIMELESS (UniProt Q9UNS1) — higher, -0.244
- SLC25A24 (UniProt Q6NUK1) — higher, -0.0911
- IFNGR1 (UniProt P15260) — lower, -0.824
- COG3 (UniProt Q96JB2) — higher, 1.88
- RPL19 (UniProt P84098) — higher, 0.269
- FASN (UniProt P49327) — higher, 0.217
- RPL12 (UniProt P30050) — higher, 0.344
- ACADSB (UniProt P45954) — higher, 0.39
- PRG4 (UniProt Q92954) — lower, -2.2
- DDX28 (UniProt Q9NUL7) — higher, -0.0583
- SEC31A (UniProt O94979) — higher, 0.00351
- RNMT (UniProt O43148) — higher, 0.428
- RPS19BP1 (UniProt Q86WX3) — higher, -0.305
- ARHGAP12 (UniProt Q8IWW6) — lower, -0.578
- STXBP2 (UniProt Q15833) — higher, -0.105
- TPT1 (UniProt P13693) — higher, 0.494
- POLR1E (UniProt Q9GZS1) — higher, 0.144
- ZNF277 (UniProt Q9NRM2) — higher, 0.365
- PPIL3 (UniProt Q9H2H8) — higher, -0.0679
- ZNF384 (UniProt Q8TF68) — higher, -0.017
- TNFAIP3 (UniProt P21580) — higher, -0.409
- ZNFX1 (UniProt Q9P2E3) — higher, 0.113
- SCAF11 (UniProt Q99590) — higher, 1.24
- SEC24A (UniProt O95486) — higher, -0.232
- ENOPH1 (UniProt Q9UHY7) — higher, 0.0377
- PLXNB2 (UniProt O15031) — higher, 0.453
- LSM1 (UniProt O15116) — higher, 1.6
- UBA3 (UniProt Q8TBC4) — higher, -0.466
- STX10 (UniProt O60499) — higher, -0.387
- PSMC6 (UniProt P62333) — higher, 0.467
- RRP1B (UniProt Q14684) — higher, 0.131
- HDAC3 (UniProt O15379) — higher, -0.0189
- ARHGAP10 (UniProt A1A4S6) — higher, 0.133
- MON1B (UniProt Q7L1V2) — higher, 0.955
- MFAP1 (UniProt P55081) — higher, 0.755
- THEM6 (UniProt Q8WUY1) — higher, 0.308
- NME7 (UniProt Q9Y5B8) — higher, 0.000387
- MED17 (UniProt Q9NVC6) — higher, 0.255
- KNSTRN (UniProt Q9Y448) — lower, -0.729
- PPP4R3B (UniProt Q5MIZ7) — higher, -0.195
- TBCB (UniProt Q99426) — higher, 0.475
- ITGAV (UniProt P06756) — higher, -0.283
- RBSN (UniProt Q9H1K0) — higher, 0.0643
- KXD1 (UniProt Q9BQD3) — higher, 0.543
- GNA13 (UniProt Q14344) — higher, 0.187
- DNAJC25 (UniProt Q9H1X3) — lower, -1.46
- PPP2R2A (UniProt P63151) — higher, 0.294
- HIBCH (UniProt Q6NVY1) — higher, 0.0376
- EBNA1BP2 (UniProt Q99848) — higher, 0.29
- RBM47 — higher, 0.133
- NR3C1 (UniProt P04150) — higher, -0.273
- VIMP (UniProt Q9BQE4) — higher, 0.458
- ZNF629 (UniProt Q9UEG4) — higher, 0.162
- MTX3 (UniProt Q5HYI7) — higher, 0.929
- POGK (UniProt Q9P215) — higher, 0.0568
- SORT1 (UniProt Q99523) — higher, -0.0906
- GSTM3 (UniProt P21266) — higher, 0.731
- DAP (UniProt P51397) — higher, 1.03
- CCDC127 (UniProt Q96BQ5) — lower, -0.707
- ATP6V1B2 (UniProt P21281) — higher, -0.0948
- KIF3B (UniProt O15066) — higher, 0.285
- MTR (UniProt Q99707) — higher, -0.354
- TRRAP (UniProt Q9Y4A5) — higher, 0.918
- FAM234A (UniProt Q9H0X4) — higher, -0.353
- MRPL4 (UniProt Q9BYD3) — higher, -0.319
- COL12A1 (UniProt Q99715) — lower, -3.01
- PHF6 (UniProt Q8IWS0) — higher, -0.33

same assay, conditions: HeLa; lipoamide concentration 100 µM; arsenate co-treatment: none

Point of comparison: ZNF384 (UniProt Q8TF68), thermal stability z-score 0.00673. Against it:
- PDSS2 (UniProt Q86YH6) — higher, 0.484
- LARP4B (UniProt Q92615) — higher, 0.174
- KIF13A (UniProt Q9H1H9) — lower, -0.0098
- TIMELESS (UniProt Q9UNS1) — lower, -0.0831
- SLC25A24 (UniProt Q6NUK1) — lower, -0.127
- IFNGR1 (UniProt P15260) — lower, -1.59
- COG3 (UniProt Q96JB2) — higher, 2.29
- RPL19 (UniProt P84098) — lower, -0.195
- FASN (UniProt P49327) — higher, 0.252
- RPL12 (UniProt P30050) — higher, 0.0511
- ACADSB (UniProt P45954) — higher, 0.509
- PRG4 (UniProt Q92954) — lower, -2.18
- DDX28 (UniProt Q9NUL7) — higher, 0.0995
- SEC31A (UniProt O94979) — lower, -0.104
- RNMT (UniProt O43148) — higher, 0.541
- RPS19BP1 (UniProt Q86WX3) — lower, -0.278
- ARHGAP12 (UniProt Q8IWW6) — lower, -0.344
- STXBP2 (UniProt Q15833) — higher, 0.167
- TPT1 (UniProt P13693) — higher, 0.196
- POLR1E (UniProt Q9GZS1) — higher, 0.0221
- ZNF277 (UniProt Q9NRM2) — higher, 0.166
- PPIL3 (UniProt Q9H2H8) — higher, 0.0318
- TNFAIP3 (UniProt P21580) — lower, -0.303
- ZNFX1 (UniProt Q9P2E3) — higher, 1.85
- SCAF11 (UniProt Q99590) — higher, 0.982
- SEC24A (UniProt O95486) — lower, -0.0421
- ENOPH1 (UniProt Q9UHY7) — lower, -0.118
- PLXNB2 (UniProt O15031) — higher, 0.113
- LSM1 (UniProt O15116) — higher, 2.05
- UBA3 (UniProt Q8TBC4) — lower, -0.282
- STX10 (UniProt O60499) — lower, -0.00805
- PSMC6 (UniProt P62333) — higher, 0.219
- RRP1B (UniProt Q14684) — higher, 0.133
- HDAC3 (UniProt O15379) — lower, -0.0121
